“Also recorded” adds a separate entry of the source.
Legend:
[1] = OxiSelect ORAC Activity Assay Kit: antioxidant activity against peroxy radicals (AAPH); type: biochemical; details: for Antioxidant Activity Against Peroxy Radicals (NetAUC): AUCsample minus AUCblank, 60 minutes; for antioxidant action against peroxy radicals (fluorescence intensity): every 5 minutes for 60 minutes
Method: In this Example, HRG was investigated for its antioxidant action against peroxy radicals. As a positive control, Trolox was used. Antioxidant activity against peroxy radicals was measured with OxiSelect™ ORAC Activity Assay Kit (Cell Biolabs, San Diego, Calif.) in accordance with the specifications. The fluorescent probe solution was added to a sample solution, the mixture was incubated at 37° C. for 30 minutes, and added with 2,2′-azobis-(2-methylpropionamidine) dihydrochloride (AAPH), followed by immediate measurement of fluorescence intensity (Ex/Em=485 nm/538 nm). In the presence of peroxy radicals, the fluorescence of the fluorescent probe is quenched, and the quenching is inhibited when antioxidant activity is present. A. For each of 0 μM to 6.25 μM Trolox sample solutions, their fluorescence intensities (Ex/Em=485 nm/538 nm) were measured every 5 minutes for 60 minutes in accordance with the above-mentioned measurement method. […] B. For each of 0 μM to 1 μM HRG sample solutions, their fluorescence intensity (Ex/Em=485 nm/538 nm) were measured every 5 minutes for 60 minutes in accordance with the above-mentioned measurement method. […] The difference between the area under the curve of the fluorescence intensity of Trolox or HRG (AUCsample) and the area under the curve of the blank (AUCblank) was measured every 5 minutes for 60 minutes after the initiation of reaction to calculate NetAUC. […] In this Example, the histidine-rich peptide was investigated for its antioxidant action against peroxy radicals in the same manner as in Example 4. A. The fluorescent probe solution was added to each solution of HRG (1 μM), the histidine-rich peptide (6 μM), or the control peptide (6 μM), and antioxidant activity against peroxy radicals was measured by the same technique as that of Example 4. […] B. The fluorescent probe solution was added to histidine-rich peptide solutions (0.1 μM to 10 μM), and antioxidant activity against peroxy radicals was measured by the same technique as that of Example 4. […] The difference between the area under the curve of the fluorescence intensity of the histidine-rich peptide or HRG (AUCsample) and the area under the curve of the blank (AUCblank) was measured every 5 minutes for 60 minutes after the initiation of reaction to calculate NetAUC.

[2] = Calorimetry (MicroCal iTC200) metal ion-binding property, trivalent iron ions; details: FIG. 4A, 5A, 6A
Method: (§1) In this Example, in order to investigate the binding properties of HRG to metal ions serving as essential factors in Fenton' s reaction, an experiment was performed using calorimetry. MicroCal iTC200 was used as a calorimeter, and binding properties between various metals (iron, copper, cobalt, zinc, and nickel) and samples were measured in accordance with the specifications.

[3] = Calorimetry (MicroCal iTC200) metal ion-binding property, divalent metal ions; details: for binding to divalent metal ions: iron, copper, cobalt, zinc, nickel, FIG. 4A-6B
Method: as §1

[4] = OxiSelect HORAC Activity Assay Kit: antioxidant activity against hydroxy radicals (cell-free, Fenton's reagent); type: biochemical; details: for Antioxidant Activity Against Hydroxy Radicals (NetAUC): AUCsample minus AUCblank, 60 minutes; for antioxidant action against hydroxy radicals (fluorescence intensity): every 5 minutes for 60 minutes
Method: Antioxidant activity against hydroxy radicals was measured with OxiSelect™ HORAC Activity Assay Kit (Cell Biolabs, San Diego, Calif.) in accordance with the specifications. A fluorescent probe solution was added to a sample solution, the mixture was incubated at 37° C. for 30 minutes, and a hydroxy radical initiator (H2O2) and Fenton's reagent were added, followed by the measurement of a fluorescence intensity (Ex/Em=485 nm/538 nm) based on the oxidation of the fluorescent probe by hydroxy radicals via hydrogen atom transfer (HAT). In the presence of hydroxy radicals, the fluorescence of the fluorescent probe is quenched, and the quenching is inhibited when antioxidant activity is present. As the sample solution, 0.01 μM to 1 μM HRG solutions, or 50 μM to 100 μM GA solutions were used. A. For each of the 50 μM to 100 μM gallic acid (GA) sample solutions, their fluorescence intensities (Ex/Em=485 nm/538 nm) were measured every 5 minutes for 60 minutes in accordance with the above-mentioned measurement method. The fluorescence intensities of GA and a blank were plotted on the vertical axis, and the measurement times were plotted on the horizontal axis. […] B. For each of the 0 μM to 1 μM HRG sample solutions, their fluorescence intensities (Ex/Em=485 nm/538 nm) were measured every 5 minutes for 60 minutes in accordance with the above-mentioned measurement method. The fluorescence intensities of HRG and a blank were plotted on the vertical axis, and the measurement times were plotted on the horizontal axis. […] The difference between the area under the curve of the fluorescence intensity of GA or HRG (AUCsample) and the area under the curve of the blank (AUCblank) was measured every 5 minutes for 60 minutes after the initiation of reaction, and NetAUC was calculated. […] In this Example, the histidine-rich peptide (SEQ ID NO: 10) was investigated for its antioxidant action against hydroxy radicals by the same technique as that of Example 1. A control peptide (SEQ ID NO: 11) was similarly investigated. A. The fluorescent probe solution was added to each solution of HRG (1 μM), the histidine-rich peptide (6 μM), or the control peptide (6 μM), and antioxidant activity against hydroxy radicals was measured by the same technique as that of Example 1. […] B. The fluorescent probe solution was added to histidine-rich peptide solutions (0.1 μM to 10 μM), and the resultant mixtures were measured for their antioxidant activity against hydroxy radicals by the same technique as that of Example 1. […] The difference between the area under the curve of the fluorescence intensity of the histidine-rich peptide or HRG (AUCsample) and the area under the curve of the blank (AUCblank) was measured every 5 minutes for 60 minutes after the initiation of reaction to calculate NetAUC.

[5] = DetectX Superoxide Dismutase (SOD) Colorimetric Activity Kit: antioxidant action against superoxide (xanthine/xanthine oxidase); type: biochemical; details: 0.01 μM to 1 μM; room temperature 20 minutes; absorbance 450 nm; FIG. 9A-B
Text: In this Reference Example, the antioxidant action of HRG against superoxide was investigated through use of DetectX Superoxide Dismutase (SOD) Colorimetric Activity Kit (Arbor Assays, Ann Arbor, Mich.). HRG used was plasma-derived HRG generated by the method described in Example 1. Superoxide anion (O^2−) is generated by a xanthine/xanthine oxidase (XOD) system, and is detected through use of a chromogen solution. Superoxide dismutase (SOD) is a metalloenzyme that catalyzes the conversion of O^2− into an oxygen molecule and hydrogen peroxide. The presence of SOD decreases the O^2− concentration to decrease a dye signal.
In accordance with the specifications, xanthine oxidase, and a substrate were added to 0.01 μM to 1 μM HRG solutions, and the mixtures were incubated at room temperature for 20 minutes. After that, the reaction solutions were each measured for its absorbance at a wavelength of 450 nm. As a control, measurement was similarly performed for SOD.

[6] = OxiSelect Catalase Activity Assay Kit: catalase-like activity; type: biochemical; details: 0.01 μM to 1 μM; FIG. 10A-B
Method: In this Reference Example, whether HRG had catalase-like activity was investigated through use of OxiSelect™ Catalase Activity Assay Kit (Cell Biolabs, San Diego, Calif.). HRG used was plasma-derived HRG generated by the method described in Example 1. A prescribed amount of hydrogen peroxide was allowed to react with 0.01 μM to 1 μM HRG. Next, the remaining hydrogen peroxide was incubated in the presence of HRP with a probe (colorimetric measurement: DHBS+AAP; and fluorescence measurement: ADHP (10-Acetyl-3,7-dihydroxyphenoxazine)) at 37° C. for 30 minutes, and the resulting fluorescence intensity (Ex/Em=544 nm/590 nm) was measured. As a control, measurement was similarly performed for catalase.

[7] = overall conclusion from the results

Row | Molecule | antioxidant activity against peroxy radicals ([1]; 6 μM, FIG. 8A) | binding to trivalent iron ions [2] | binding to divalent metal ions [3] | antioxidant activity against hydroxy radicals ([4]; 6 μM, FIG. 3A) | Antioxidant Activity Against Peroxy Radicals (NetAUC) ([1]; FIG. 8C) | Antioxidant Activity Against Hydroxy Radicals (NetAUC) ([4]; FIG. 3C) | antioxidant activity against hydroxy radicals [4, 7] | also measured
1 | GAAPAGAAPA (Standard peptide) [control peptide, reference compound] | no antioxidant action | did not bind to any of the various metal ions | did not bind to any of the various metal ions | no antioxidant action |  |  |  | 
2 | GHHPHGHHPH [histidine-rich peptide] | an antioxidant action, which was slightly weaker | does not bind to trivalent iron ions | bind to divalent metal ions (iron, copper, cobalt, zinc, and nickel) | potent antioxidant actions | weak as compared to HRG | potent antioxidant action against hydroxy radicals | potent antioxidant activity against hydroxy radicals | antioxidant activity against peroxy radicals ([1]; 0.1 μM to 10 μM, FIG. 8B): antioxidant activity in a slightly concentration-dependent manner; antioxidant activity against hydroxy radicals ([4]; 0.1 μM to 10 μM, FIG. 3B): potent antioxidant activity in a concentration-dependent manner
3 | Cc1c(C)c2c(c(C)c1O)CCC(C)(C(=O)O)O2 (stereo not drawn) [Trolox, reference compound] |  |  |  |  |  |  |  | antioxidant action against peroxy radicals (fluorescence intensity) ([1]; 0 μM to 6.25 μM sample solutions, FIG. 7A): antioxidant action against peroxy radicals was recognized in a manner dependent on the concentration of Trolox
4 | O=C(O)c1cc(O)c(O)c(O)c1 [GA, gallic acid, reference compound] |  |  |  |  |  |  |  | antioxidant action against hydroxy radicals (fluorescence intensity) ([4]; 50 μM to 100 μM sample solutions, FIG. 2A): antioxidant action against hydroxy radicals was recognized in a manner dependent on the concentration of GA
5 | HRG: Histidine-rich glycoprotein, plasma protein of 507 amino acids (SEQ ID NO: 1), generated from human plasma as a starting material (protein, listed as Homo sapiens) VSPTDCSAVEPEAEKALDLINKRRRDGYLFQLLRIADAHLDRVENTTVYYLVLDVQESDCSVLSRKYWNDCEPPDSRRPSEIVIGQCKVIATRHSHESQDLRVIDFNCTTSSVSSALANTKDSPVLIDFFEDTERYRKQANKALEKYKEENDDFASFRVDRIERVARVRGGEGTGYFVDFSVRNCPRHHFPRHPNVFGFCRADLFYDVEALDLESPKNLVINCEVFDPQEHENINGVPPHLGHPFHWGGHERSSTTKPPFKPHGSRDHHHPHKPHEHGPPPPPDERDHSHGPPLPQGPPPLLPMSCSSCQHATFGTNGAQRHSHNNNSSDLHPHKHHSHEQHPHGHHPHAHHPHEHDTHRQHPHGHHPHGHHPHGHHPHGHHPHGHHPHCHDFQDYGPCDPPPHNQGHCCHGHGPPPGHLRRRGPGKGPRPFHCRQIGSVYRLPPLRKGEVLPLPEANFPSFPLPHHKHPLKPDNQPFPQSVSESCPGKFKSGFPQVSMFFTHTFPK |  | did not bind to trivalent iron ions | bound to divalent metal ions (iron, copper, cobalt, zinc, and nickel) |  | had an antioxidant action against peroxy radicals | potent antioxidant action against hydroxy radicals | potent antioxidant activity against hydroxy radicals | antioxidant action against peroxy radicals (fluorescence intensity) ([1]; 0 μM to 1 μM sample solutions, FIG. 7B): antioxidant action against peroxy radicals was recognized in a manner dependent on the concentration of HRG; antioxidant activity against peroxy radicals ([1]; 1 μM, FIG. 8A): potent antioxidant action; Antioxidant Activity Against Peroxy Radicals (NetAUC) ([1]; various concentrations, FIG. 7C): has an antioxidant action against peroxy radicals; antioxidant activity against peroxy radicals [1, 7]: showed an antioxidant activity against peroxy radicals; scavenging activity / antioxidant action against superoxide [5]: no scavenging activity against superoxide; also recorded: hardly showed an antioxidant action against superoxide; also recorded: no antioxidant action against superoxide; catalase-like activity [6]: no catalase-like activity; number of divalent metal ions bound per molecule ([3]; FIG. 4A): a large number of divalent metal ions bind to one molecule of HRG; antioxidant action against hydroxy radicals (fluorescence intensity) ([4]; 0 μM to 1 μM sample solutions, FIG. 2B): antioxidant action against hydroxy radicals was recognized in a manner dependent on the concentration of HRG; antioxidant activity against hydroxy radicals ([4]; 1 μM, FIG. 3A): potent antioxidant actions; Antioxidant Activity Against Hydroxy Radicals (NetAUC) ([4]; various concentrations, FIG. 2C): potent antioxidant action against hydroxy radicals
